Assay results taken from patent publication US7700584B2 (Hangzhou Minsheng Pharmaceuticals Co., Ltd., priority 2004, dated 2010).
Converted amounts (≈) assume the structure as drawn. Read-outs that look alike come from different tables or passages of the source.

Experiments:
[1] = system: HL-60 human promyelocytic leukemia; experiment: In vitro anti-tumor IC50 (MTT), HL-60; assay type: cell-based; conditions: Table 4
Procedure: (§1) (1) Single cell suspension was seeded into 96-well plates (the cells was diluted in the PRMI-1640 minimum medium to 3×10^4 cells/ml, […] diluted cells/well). […] The experiments were performed in quadruplicate.
(§2) (2) The medium was removed. Solutions of the anti-tumor agents (50 compounds) were prepared in a freshly prepared medium at serial concentrations. […] of the solution was added into each well. Incubation was continued for 48 hours.
(§3) (3) 20 ug of 2 mg/ml MTT was added into each well, and incubated for 4 hours.
(§4) (4) The medium was removed from the well. The microplates were swiftly turned down to throw-off the medium. […] of DMSO was added into each well, and vortexed at room temperature for 10 minutes.
(§5) (5) OD value (λ=570 nm) was measured with an Enzyme-Linked Detector.
(§6) (6) The graph of cell vitality was plotted, and IC50 was calculated.

[2] = system: mouse grafted uterine cervix cancer U14; experiment: Activity against mouse grafted uterine cervix cancer U14; assay type: in vivo, Kunming mice; conditions: 30 mg/kg; for Tumor weight: X ± SD, n = 10
Procedure: (§7) The experiments were performed according to “Guideline for New Drugs (Western medicines) in Pre-clinical Stages” issued by Bureau of Drug Policy & Administration of the People's Republic of China, and the relevant methods in “Methodology of Pharmaceutical Experiments”, Xu Shuyun et al. ed. 120 male Kunming mice weighting […] were allowed to grow 3 days. No abnormality was observed. The mice were routinely inoculated in oxter with mouse sarcoma S-180, and weighted 4 hrs. after inoculation. The mice were randomly divided into 12 groups, 10 mice/group. Group 1 was given 0.3 ml of physiological saline as negative control; Group 2 was given 5-FU as positive control, 0.6 mg/mouse; Group 3 was given hydroxycamptothecine as positive control, 0.02 mg/mouse. Groups 4, 5 and 6 were injected with 10% Compound 6, 0.4 ml/mouse, 0.2 ml/mouse, and 0.1 ml/mouse, respectively. Groups 7, 8 and 9 were injected with 10% Compound 8, 0.4 ml/mouse, 0.2 ml/mouse, and 0.1 ml/mouse, respectively. Groups 10, 11, and 12 were injected with 10% Compound 20, 0.4 ml/mouse, 0.2 ml/mouse, and 0.1 ml/mouse, respectively. The tested compounds were administered on the next day after inoculation, once a day on alternate days, 6 doses totally administered. On the next day after the end dose, the mice were weighed and sacrificed. After the tumor was excised, body weight and tumor weight were recorded. The tumor inhibition rate was calculated based on the following formula: [(average tumor weight of the control groups−average tumor weight of the experimental groups)/average tumor weight of the control groups]×100%. The data was processed statistically. The above experiments were repeated three times.
(§8) The experiments were identical with the experiments for activity against mouse grafted sarcoma S-180, except the following:
(1) the tumor cell line inoculated was mouse grafted uterine cervix cancer U14;
(2) all the mice were female.

[3] = system: MCF-7 human mammary adenocarcinoma; experiment: In vitro anti-tumor IC50 (MTT), MCF-7; assay type: cell-based; conditions: Table 4
Procedure: as §1, §2, §3, §4, §5, §6

[4] = system: A-549 human lung adenocarcinoma; experiment: In vitro anti-tumor IC50 (MTT), A-549; assay type: cell-based; conditions: Table 4
Procedure: as §1, §2, §3, §4, §5, §6

[5] = system: mouse lung cancer Lewis; experiment: Activity against mouse grafted lung cancer Lewis; assay type: in vivo, Kunming mice; conditions: Lewis, 30 mg/kg; for Tumor weight: X ± SD, n = 10
Procedure: as §7, §8
(1) the tumor cell line inoculated was mouse lung cancer Lewis;
(2) Compound 6, Compound 8 and Compound 21 were not tested for their activity;
(3) the mice were divided into six groups.

[6] = system: mouse grafted liver cancer H22; experiment: Activity against mouse grafted liver cancer H22; assay type: in vivo, Kunming mice; conditions: for Tumor weight: X ± SD, n = 10
Procedure: as §7
The experiments were identical with the experiments for activity against mouse grafted sarcoma S-180, except that the cell line inoculated was liver cancer H22. The experiments were repeated three times.

[7] = system: Hela human cervical carcinoma; experiment: In vitro anti-tumor IC50 (MTT), Hela; assay type: cell-based; conditions: Table 4
Procedure: as §1, §2, §3, §4, §5, §6

[8] = system: mouse grafted sarcoma S-180; experiment: Activity against mouse grafted sarcoma S-180; assay type: in vivo, Kunming mice; conditions: for Inhibition rate (%) / Tumor weight: 30 mg/kg i.v., 6 doses; for Tumor weight: X ± SD, n = 10
Procedure: (1) Experimental animals: Kunming mice weighting 18-22 g;
(2) 100 mg/ml solutions of the 3 compounds were prepared, respectively, in water for injection (1% surface surfactant was added into the solution of Compound 6). 5-FU and camptothecine, 30 mg/kg and 1 mg/kg, respectively, were used as positive controls;
3. Route of Administration: Intravenous Injection.
as §7

[9] = system: Bel-7402 human hepatic carcinoma; experiment: In vitro anti-tumor IC50 (MTT), Bel-7402; assay type: cell-based; conditions: Table 4
Procedure: as §1, §2, §3, §4, §5, §6

[10] = system: Bel-7402 human hepatic carcinoma; experiment: In vitro inhibition rate to tumor cells (MTT), Bel-7402; assay type: cell-based; conditions: Homo sapiens, Bel-7402, 50 μg/ml, read-out: inhibition rate, Results (%) Bel-7402
[11] = system: Hela human cervical carcinoma; experiment: In vitro inhibition rate to tumor cells (MTT), Hela; assay type: cell-based; conditions: Homo sapiens, HeLa, 50 μg/ml, read-out: inhibition rate, Results (%) Hela
[12] = Solubility in water (observation); assay type: physicochemical
[13] = system: MCF-7 human mammary adenocarcinoma; experiment: In vitro inhibition rate to tumor cells (MTT), MCF-7; assay type: cell-based; conditions: Homo sapiens, MCF7, 50 μg/ml, read-out: inhibition rate, Results (%) MCF-7
[14] = system: U-937 human histocytic lymphoma; experiment: In vitro inhibition rate to tumor cells (MTT), U-937; assay type: cell-based; conditions: Homo sapiens, U-937, 50 μg/ml, read-out: inhibition rate, Results (%) U-937
[15] = system: SMMC-7721 human hepatic carcinoma; experiment: In vitro inhibition rate to tumor cells (MTT), SMMC-7721; assay type: cell-based; conditions: Homo sapiens, SMMC-7721, 50 μg/ml, read-out: inhibition rate, Results (%) SMMC-7721
[16] = system: LLC mouse Lewis lung carcinoma; experiment: In vitro inhibition rate to tumor cells (MTT), LLC; assay type: cell-based; conditions: Mus musculus, Lewis lung carcinoma, 50 μg/ml
[17] = system: HL-60 human promyelocytic leukemia; experiment: In vitro inhibition rate to tumor cells (MTT), HL-60; assay type: cell-based; conditions: Homo sapiens, HL-60, 50 μg/ml, read-out: inhibition rate, Results (%) HL-60
[18] = system: A-549 human lung adenocarcinoma; experiment: In vitro inhibition rate to tumor cells (MTT), A-549; assay type: cell-based; conditions: Homo sapiens, A549, 50 μg/ml, read-out: inhibition rate, Results (%) A-549
[19] = system: MDCK (dog kidney) cells; experiment: Toxicity TC50 of the samples in MDCK cells (influenza screening); conditions: concentration of 50% toxicity
[20] = system: influenza B virus (Jifang 97-13); experiment: Screening for the activity against influenza B virus (CPE in MDCK cells)
[21] = system: influenza A virus (Jifang 90-15); experiment: microbe, parasite or virus in culture; assay type: cell-based
[22] = H22, first experiment, 30 mg/kg i.v., 6 doses
[23] = H22, second experiment, 30 mg/kg
[24] = H22, third experiment, 30 mg/kg

O=c1[nH]cc(F)c(=O)[nH]1 [Compound 5-FU, reference compound]
IC50 (ug/ml) against tumor cell lines, HL-60 [1]: 0.51 µg/mL (≈ 3.92 µM)
Inhibition rate (%) ([2]; U14, first experiment): 40.2%
Tumor weight ([2]; U14, first experiment): 2.10 ± 0.31 g
Inhibition rate (%) ([2]; U14, second experiment): 42.6%
Tumor weight ([2]; U14, second experiment): 1.95 ± 0.31 g
Inhibition rate (%) ([2]; U14, third experiment): 42.0%
Tumor weight ([2]; U14, third experiment): 2.10 ± 0.31 g
Average weight (g)-after administration ([2]; mouse, in vivo): 21.0 g
Average weight(g)-after administration ([2]; mouse, in vivo): 21.3 g
IC50 (ug/ml) against tumor cell lines, MCF [3]: 1.53 µg/mL (≈ 11.8 µM)
IC50 (ug/ml) against tumor cell lines, A-549 [4]: 0.7 µg/mL (≈ 5.38 µM)
Inhibition rate (%) ([5]; first experiment): 55.0%
Tumor weight ([5]; first experiment): 1.34 ± 0.31 g
Inhibition rate (%) ([5]; second experiment): 54.3%
Tumor weight ([5]; second experiment): 1.10 ± 0.31 g
Inhibition rate (%) ([5]; third experiment): 53.7%
Tumor weight ([5]; third experiment): 1.25 ± 0.31 g
Inhibition rate (%) [6, 22]: 60.0%
Tumor weight [6, 22]: 1.21 ± 0.31 g
Inhibition rate (%) [6, 23]: 60.5%
Tumor weight [6, 23]: 1.19 ± 0.31 g
Inhibition rate (%) [6, 24]: 64.2%
Tumor weight [6, 24]: 1.08 ± 0.31 g
Average weight (g)-after administration ([6]; mouse, in vivo, 30 mg/kg): 20.3 g
Average weight(g)-after administration ([6]; mouse, in vivo, 30 mg/kg): 21.3 g
Average weight(g)-after administration ([6]; mouse, in vivo, iv, 30 mg/kg): 22.3 g
IC50 (ug/ml) against tumor cell lines, Hela [7]: 2.86 µg/mL (≈ 22 µM)
Inhibition rate (%) ([8]; S-180, first experiment): 71.2%
Tumor weight ([8]; S-180, first experiment): 0.72 ± 0.23 g
Inhibition rate (%) ([8]; S-180, second experiment): 69.6%
Tumor weight ([8]; S-180, second experiment): 0.79 ± 0.33 g
Average weight (g)-after administration ([8]; mouse, in vivo, iv, 30 mg/kg): 22.9 g
Average weight(g)-after administration ([8]; mouse, in vivo, iv, 30 mg/kg): 21.9 g
IC50 (ug/ml) against tumor cell lines, Bel-7402 [9]: 0.54 µg/mL (≈ 4.15 µM)

CC(C)C1CC23OC1(O)CC(O)(CO)C2CCC3C (centres unmarked) [Compound 32, Curcumol dihydroxy compound]
inhibition at 50 µg/mL ([10]; Table 1): 4.23%
inhibition at 50 µg/mL ([10]; Table 2 (repeated screening)): 4.23%
inhibition at 50 µg/mL ([11]; Table 1): 84.3%
inhibition at 50 µg/mL ([11]; Table 2 (repeated screening)): 80.1%
solubility in water (in words) [12]: very big
inhibition at 50 µg/mL ([13]; Table 1): 65.1%
inhibition at 50 µg/mL ([13]; Table 2 (repeated screening)): 65%
inhibition at 50 µg/mL ([14]; Table 1): 65.3%
inhibition at 50 µg/mL ([14]; Table 2 (repeated screening)): 67.2%
inhibition at 50 µg/mL ([15]; Table 1): 80%
inhibition at 50 µg/mL ([15]; Table 2 (repeated screening)): 82.6%
inhibition at 50 µg/mL ([16]; Table 1): 7.27%
inhibition at 50 µg/mL ([16]; Table 2 (repeated screening)): 7.05%
inhibition at 50 µg/mL ([17]; Table 1): 14%
inhibition at 50 µg/mL ([17]; Table 2 (repeated screening)): 13.4%
inhibition at 50 µg/mL ([18]; Table 1): -12.5%
inhibition at 50 µg/mL ([18]; Table 2 (repeated screening)): -12.5%

NC(=O)c1ncn([C@@H]2O[C@H](CO)[C@@H](O)[C@H]2O)n1 [RBV]
TC50 [19]: >2000 µg/mL
IC50, influenza B virus ([20]; CPE in MDCK cells): 6.17 µg/mL (≈ 25.3 µM)
SI, influenza B virus ([20]; SI = TC50/IC50): 324.15
IC50, influenza A virus ([21]; CPE in MDCK cells): 2.06 µg/mL (≈ 8.44 µM)
SI, influenza A virus ([21]; SI = TC50/IC50): 970.87
